{
  "source": "paper PMC10300873",
  "about": "“Characterization of Polyphenols from Chenopodium botrys after Fractionation with Different Solvents and Study of Their In Vitro Biological Activity” (Molecules, 2023)",
  "system": "T1, trypsin",
  "T1 construct": "gene PRSS1",
  "experiment": "antitryptic activity: albumin digestion, perchloric acid precipitation, A280",
  "type": "biochemical",
  "conditions": "human albumin (4% v/v) as substrate, Tris-HCl pH 7.4, 37 °C, 5 min preincubation, 20 min reaction",
  "description": "antitryptic activity: albumin digestion, perchloric acid precipitation, A280 on trypsin",
  "data": [
    {"compound": "CC(C)Cc1ccc(C(C)C(=O)O)cc1", "note": "(stereo not shown) [ibuprofen]", "values": [
      {"measurement": "ATA / IC50 ± SD", "value": "259.82 ± 9.14", "unit": "mg/L"}
    ]}
  ]
}
